Patent US11541065B2, “Compositions and methods for treating brain injury” (UNM RAINFOREST INNOVATIONS, priority 2018, dated 2023)

Columns and labels:
[Ca^2+]i = Intracellular Ca^2+ by Fura2 imaging, WT and GluN2A KO mouse neuronal cultures; assay type: cell-based, mice; conditions: somata and processes, L-homocysteine 50 μM, 60 min
Protocol: Embryos obtained from pregnant Sprague Dawley rats (16-17-day gestation) or wild type (WT) and GluN2A KO mice (15-16-day gestation) were used to establish primary cortical neuronal cultures as previously described (Poddar and Paul, 2009, J Neurochem 110:1095-1106; Poddar and Paul, 2013, J Neurochem 124:558-570; Poddar et al., 2017, J Neurochem 142:560-573). Neurons were grown on either (a) 35-mm culture dishes (MatTek Corp., Ashland, Mass.) coated overnight with poly-D-lysine (50 μg/ml) and laminin (10 μg/ml) for Ca^2+ imaging studies, (b) poly-D-lysine-coated 60 mm dishes (Corning BIOCOAT, Corning Inc., Corning, N.Y.) for biochemical studies, or (c) poly-D-lysine-coated 4-well culture slides (Corning BIOCOAT, Corning Inc., Corning, N.Y.) for cell death assay. Neurons were maintained in culture for 12-13 days before experiment. The cells were treated with freshly prepared L-homocysteine (50 μM) in Hank's balanced salt solution containing 50 μM of glycine (Lipton et al., 1997, Proceedings of the National Academy of Sciences of the United States of America 94:5923-5928; Poddar and Paul, 2009, J Neurochem 110:1095-1106; Poddar and Paul, 2013, J Neurochem 124:558-570; Poddar et al., 2017, J Neurochem 142:560-573) for the specified time periods. In a parallel series of experiments, cells were treated with glutamate (50 μM) for the specified time periods. Cells were then processed for live cell imaging, immunoblotting or cell death assay. In some experiments EGTA, DL-AP5, NVP-AAM077, Ro 25-6981 or PD98059 was added 15 minutes prior to L-homocysteine or glutamate treatment.
[Ca^2+]i in neurons was determined using the fluorescent indicator, Fura2-AM. […] Fluorescence excitations (340 and 380 nm) were provided with Sutter LB-LS/30 Lambda xenon arc lamp and fluorescence emissions (510 nm) were captured using a CCD camera (Teledyne Photometries, Tucson, Ariz.). […] Maximum and minimum fluorescence ratios were determined from Fura2 loaded cells treated with ionomycin (5 μM) in calcium containing medium (2 mM) or in calcium free media with EGTA (0.5 mM).

[1] = system: hyperhomocysteinemic rats subjected to MCAO; experiment: Cylinder test after MCAO; assay type: in vivo, male Wistar rats; conditions: HHcy rats, day 8 after MCAO, NVP-AAM077 1.2 mg/kg; untreated HHcy 24.24±2.37%
Protocol: (§1) All rats were subjected to a battery of behavioral tests on day 7 (CatWalk), day 8 (cylinder and rotarod tests) and day 9 (adhesive test) after MCAO to evaluate normal gait, motor coordination and sensory motor functions. Habituation and training (3 days) was performed for one week before MCAO. The first two trainings days were before osmotic pump implantation and the third training day was after pump implantation. An experienced observer blinded to the experimental conditions evaluated all behavioral parameters.
Cylinder test: Control, hyperhomocysteinemic and NVP-AAM077 treated hyperhomocysteinemic rats were subjected to cylinder test to assess the post-stroke asymmetry in fore-limb use (Balkaya, 2013, J Cereb Blood Flow Metab 33:330-338). The rats were placed individually inside a transparent plexiglass cylinder (diameter 20 cm, height 45 cm). A vertical exploration movement with either the left or right forelimb along the wall was scored as contact of each paw with the glass wall for a total period of 2 minutes. Simultaneous contact by both paws was scored separately. Two trials (10 min rest between trials) were recorded and the percentage use of the affected fore limb was calculated (Liu et al., 2013, Behav Brain Res 257:166-177; Schaar et al., 2010, Exp Transl Stroke Med 2:13).

[2] = system: hyperhomocysteinemic rats subjected to MCAO; experiment: Adhesive removal test after MCAO; assay type: in vivo, male Wistar rats; conditions: HHcy rats, 9 days after MCAO, NVP-AAM077 1.2 mg/kg
Protocol: as §1
Adhesive removal test: Sensorimotor deficits following stroke was assessed by performing the adhesive removal test in control, hyperhomocysteinemic and NVP-AAM077 treated hyperhomocysteinemic rats. A small adhesive patch (7 mm×3 mm) was applied to the contralateral forepaw of each rat with equal pressure and the time taken to notice the presence of the patch (time to contact) and to remove it (time to remove) was recorded (Bouet et al., 2009, Nat Protoc 4:1560-1564). The time taken to notice the patch was recorded from the moment of placing the patch until the paw was shaken or touched by mouth. The time taken to remove the patch was recorded from the moment the mouth touched the paw to the time the patch was removed. The trial ended after the adhesive patch was removed or a maximum latency of three minutes. […]

| Compound | Fura2 fluorescence ratio and [Ca^2+]i ([Ca^2+]i; neurons from GluN2A KO mice) | Fura2 fluorescence ratio and [Ca^2+]i ([Ca^2+]i; neurons from WT mice) | spontaneous usage of the affected forepaw [1] | time to contact adhesive tape, contralateral forepaw ([2]; untreated HHcy 76.82±5.45 s) | time to remove adhesive tape, contralateral forepaw ([2]; untreated HHcy 127.86±7.29 s) |
| --- | --- | --- | --- | --- | --- |
| N[C@@H](CCS)C(=O)O [L-homocysteine] | fails to increase Fura2 fluorescence ratio or [Ca^2+]i | progressive increase in Fura2 fluorescence ratio and [Ca^2+]i |  |  |  |
| C[C@H](NC(c1cccc2[nH]c(=O)c(=O)[nH]c12)P(=O)(O)O)c1ccc(Br)cc1 (stereo partly drawn) [NVP-AAM077, ({[(1S)-1-(4-bromophenyl)ethyl]amino}-(2,3-dioxo-1,4-dihydroquinoxalin-5-yl)methyl)phosphonic acid] |  |  | 40.51±1.86% | 31.18 ± 5.68 s | 44.24 ± 7.59 s |
